In PubChem BioAssay AID330 (DTP/NCI, 2004):
Several values for one entry are separate records, joined by “and”; a condition that tells them apart may be missing. Identical values can stand only once. Toxic doses and inconclusive results are not listed.

Test system: P388 leukemia ip, CD2F1 mice, survival T/C
Assay: NCI In Vivo Anticancer Drug Screen. Data for tumor model P388 Leukemia (intraperitoneal) in CD2F1 (CDF1) mice
Settings: endpoint: median survival time, higher = longer survival
Summary of the method: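 Mice carrying the transplanted tumor received test compound or vehicle. Survival was recorded in each group, and the value is the treated-group measurement divided by that of the vehicle-treated control group.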

[1] = dose: 100.0 mg/kg/injection, schedule: Q01DX009 (ip), vehicle: saline
[2] = dose: 60.0 mg/kg/injection, schedule: Q01DX005 (ip), vehicle: saline with Tween-80
[3] = dose: 120.0 mg/kg/injection, schedule: Q01DX005 (ip), vehicle: saline with Tween-80
[4] = dose: 12.5 mg/kg/injection, schedule: Q01DX009 (ip), vehicle: saline with Tween-80
[5] = dose: 25.0 mg/kg/injection, schedule: Q01DX009 (ip), vehicle: saline with Tween-80
[6] = dose: 50.0 mg/kg/injection, schedule: Q01DX009 (ip), vehicle: saline with Tween-80
[7] = dose: 50.0 mg/kg/injection, schedule: Q01DX005 (ip), vehicle: saline
[8] = dose: 100.0 mg/kg/injection, schedule: Q01DX005 (ip), vehicle: saline
[9] = dose: 200.0 mg/kg/injection, schedule: Q01DX005 (ip), vehicle: saline
[10] = dose: 6.25 mg/kg/injection, schedule: Q01DX009 (ip), vehicle: saline with Tween-80
[11] = dose: 100.0 mg/kg/injection, schedule: Q01DX009 (ip), vehicle: saline with Tween-80
[12] = dose: 200.0 mg/kg/injection, schedule: Q01DX009 (ip), vehicle: saline with Tween-80
[13] = dose: 100.0 mg/kg/injection, schedule: Q04DX003 (ip), vehicle: saline

## O=c1cc[nH]c(=O)[nH]1
dose: 32.0 mg/kg/injection, schedule: Q01DX009 (ip), vehicle: Klucel (hydroxypropylcellulose) (HPC)
  T/C: 99 % of control and 106 % of control
dose: 32.0 mg/kg/injection, schedule: Q01DX009 (ip), vehicle: saline with Tween-80
  T/C: 114 % of control
dose: 64.0 mg/kg/injection, schedule: Q01DX009 (ip), vehicle: Klucel (hydroxypropylcellulose) (HPC)
  T/C: 98 % of control and 100 % of control
dose: 64.0 mg/kg/injection, schedule: Q01DX009 (ip), vehicle: saline with Tween-80
  T/C: 100 % of control
[1]
  T/C: 98 % of control
dose: 128.0 mg/kg/injection, schedule: Q01DX009 (ip), vehicle: Klucel (hydroxypropylcellulose) (HPC)
  T/C: 99 % of control and 102 % of control
dose: 128.0 mg/kg/injection, schedule: Q01DX009 (ip), vehicle: saline with Tween-80
  T/C: 95 % of control
dose: 200.0 mg/kg/injection, schedule: Q01DX009 (ip), vehicle: saline
  T/C: 100 % of control
dose: 256.0 mg/kg/injection, schedule: Q01DX009 (ip), vehicle: Klucel (hydroxypropylcellulose) (HPC)
  T/C: 100 % of control and 109 % of control
dose: 256.0 mg/kg/injection, schedule: Q01DX009 (ip), vehicle: saline with Tween-80
  T/C: 100 % of control
dose: 400.0 mg/kg/injection, schedule: Q01DX009 (ip), vehicle: saline
  T/C: 102 % of control
dose: 512.0 mg/kg/injection, schedule: Q01DX009 (ip), vehicle: Klucel (hydroxypropylcellulose) (HPC)
  T/C: 108 % of control and 109 % of control
dose: 512.0 mg/kg/injection, schedule: Q01DX009 (ip), vehicle: saline with Tween-80
  T/C: 97 % of control

## CCOC(=O)c1nnc2cc(-c3ccccc3)nn2c1-c1ccccc1
[2]
  T/C: 101 % of control
[3]
  T/C: 95 % of control

## Cc1ccc2[nH]c(N(C)C)nc2c2nc(Cl)nc1-2
dose: 8.25 mg/kg/injection, schedule: Q01DX005 (ip), vehicle: saline
  T/C: 108 % of control
dose: 16.5 mg/kg/injection, schedule: Q01DX005 (ip), vehicle: saline
  T/C: 103 % of control
dose: 33.0 mg/kg/injection, schedule: Q01DX005 (ip), vehicle: saline
  T/C: 100 % of control
dose: 66.0 mg/kg/injection, schedule: Q01DX005 (ip), vehicle: saline
  T/C: 97 % of control

## O=C(CCC(=O)Nc1ccc2[nH]c3ccccc3c(=O)c2c1)Nc1ccc2[nH]c3ccccc3c(=O)c2c1
dose: 60.0 mg/kg/injection, schedule: Q01DX005 (ip), vehicle: Klucel (hydroxypropylcellulose) (HPC)
  T/C: 99 % of control
dose: 120.0 mg/kg/injection, schedule: Q01DX005 (ip), vehicle: Klucel (hydroxypropylcellulose) (HPC)
  T/C: 96 % of control
dose: 240.0 mg/kg/injection, schedule: Q01DX005 (ip), vehicle: Klucel (hydroxypropylcellulose) (HPC)
  T/C: 97 % of control

## c1ccc(Sc2ncccn2)nc1
dose: 50.0 mg/kg/injection, schedule: Q01DX009 (ip), vehicle: saline
  T/C: 108 % of control
[1]
  T/C: 115 % of control

## S=c1nc(N(c2ccccc2)c2ccccc2)[nH]s1
[4]
  T/C: 104 % of control
[5]
  T/C: 101 % of control
[6]
  T/C: 93 % of control

## COc1cccc2c1C(=O)c1c(O)c3c(c(O)c1C2=O)C[C@@](O)(C(=O)CSC(C)=O)C[C@@H]3OC1CC(N)C(O)C(C)O1 (stereo partly specified)
dose: 25.0 mg/kg/injection, schedule: Q01DX009 (ip), vehicle: water
  T/C: 108 % of control and 90 % of control

## N#CC1OC1c1ccc[n+]([O-])c1 (stereo unspecified)
dose: 1.56 mg/kg/injection, schedule: Q01DX005 (ip), vehicle: saline
  T/C: 94 % of control
dose: 3.12 mg/kg/injection, schedule: Q01DX005 (ip), vehicle: saline
  T/C: 105 % of control
dose: 6.25 mg/kg/injection, schedule: Q01DX005 (ip), vehicle: saline
  T/C: 100 % of control
dose: 12.5 mg/kg/injection, schedule: Q01DX005 (ip), vehicle: saline
  T/C: 101 % of control

## CCCS(=O)(=O)CCC(=O)c1ccccc1
dose: 100.0 mg/kg/injection, schedule: Q04DX002 (ip), vehicle: saline
  T/C: 101 % of control
dose: 200.0 mg/kg/injection, schedule: Q04DX002 (ip), vehicle: saline
  T/C: 107 % of control
dose: 400.0 mg/kg/injection, schedule: Q04DX002 (ip), vehicle: saline
  T/C: 102 % of control

## O=C1OC(CO)C(O)C(O)C1O (stereo unspecified)
[7]
  T/C: 100 % of control
[8]
  T/C: 93 % of control
[9]
  T/C: 96 % of control

## CS(=O)(=O)C(c1nc2nnc(NC(=O)Nc3ccc(Cl)cc3)n2[nH]c1=O)c1nc2nnc(NC(=O)Nc3ccc(Cl)cc3)n2[nH]c1=O
[2]
  T/C: 104 % of control
[3]
  T/C: 100 % of control
dose: 240.0 mg/kg/injection, schedule: Q01DX005 (ip), vehicle: saline with Tween-80
  T/C: 98 % of control

## C=C1C(C)C2C(Cc3ccccc3)NC(=O)C23C(OC(C)=O)/C=C/C(C)(O)CC(C)C/C=C/C3C1O (stereo unspecified)
dose: 3.13 mg/kg/injection, schedule: Q01DX009 (ip), vehicle: saline with Tween-80
  T/C: 121 % of control
[10]
  T/C: 124 % of control

## Cc1ccc2c(c1)N=C(Nc1ccccc1)N=S2(C)=O (stereo unspecified)
[4]
  T/C: 93 % of control
[5]
  T/C: 92 % of control
[6]
  T/C: 117 % of control and 119 % of control
[11]
  T/C: 104 % of control

## c1cnc2ncncc2n1
[6]
  T/C: 104 % of control and 111 % of control
[11]
  T/C: 120 % of control
[12]
  T/C: 150 % of control

## Nc1nnc(CCC(=O)Nc2cccc(C(F)(F)F)c2)n1N
dose: 50.0 mg/kg/injection, schedule: Q01DX005 (ip), vehicle: saline with Tween-80
  T/C: 107 % of control
dose: 100.0 mg/kg/injection, schedule: Q01DX005 (ip), vehicle: saline with Tween-80
  T/C: 105 % of control
dose: 200.0 mg/kg/injection, schedule: Q01DX005 (ip), vehicle: saline with Tween-80
  T/C: 90 % of control

## Cc1cc2c3c(c1)C(C(F)(F)F)(C(F)(F)F)OI3OC2(C(F)(F)F)C(F)(F)F
dose: 25.0 mg/kg/injection, schedule: Q01DX005 (ip), vehicle: Klucel (hydroxypropylcellulose) (HPC)
  T/C: 95 % of control
dose: 50.0 mg/kg/injection, schedule: Q01DX005 (ip), vehicle: Klucel (hydroxypropylcellulose) (HPC)
  T/C: 95 % of control
dose: 100.0 mg/kg/injection, schedule: Q01DX005 (ip), vehicle: Klucel (hydroxypropylcellulose) (HPC)
  T/C: 96 % of control
dose: 200.0 mg/kg/injection, schedule: Q01DX005 (ip), vehicle: Klucel (hydroxypropylcellulose) (HPC)
  T/C: 97 % of control

## O=C(C[n+]1ccccc1)NC(O)C(Cl)(Cl)Cl (stereo unspecified)
[7]
  T/C: 106 % of control
[8]
  T/C: 105 % of control
[9]
  T/C: 109 % of control

## CC(C)CCC(C)C1CCC2C3CC([N+](=O)[O-])=C4CC(OC(=O)c5ccccc5)CCC4(C)C3CCC12C (stereo unspecified)
dose: 100.0 mg/kg/injection, schedule: Q04DX003 (ip), vehicle: saline with Tween-80
  T/C: 90 % of control
dose: 200.0 mg/kg/injection, schedule: Q04DX003 (ip), vehicle: saline with Tween-80
  T/C: 90 % of control
dose: 400.0 mg/kg/injection, schedule: Q04DX003 (ip), vehicle: saline with Tween-80
  T/C: 90 % of control

## COC(=O)C1(c2ccccc2)N=C1N(C)C (stereo unspecified)
dose: 100.0 mg/kg/injection, schedule: Q04DX002 (ip), vehicle: saline with Tween-80
  T/C: 94 % of control
dose: 200.0 mg/kg/injection, schedule: Q04DX002 (ip), vehicle: saline with Tween-80
  T/C: 94 % of control
dose: 400.0 mg/kg/injection, schedule: Q04DX002 (ip), vehicle: saline with Tween-80
  T/C: 102 % of control

## O=C(O)c1ccccc1SSc1ccccc1C(=O)O
dose: 50.0 mg/kg/injection, schedule: Q01DX009 (ip), vehicle: Klucel (hydroxypropylcellulose) (HPC)
  T/C: 96 % of control
dose: 100.0 mg/kg/injection, schedule: Q01DX009 (ip), vehicle: Klucel (hydroxypropylcellulose) (HPC)
  T/C: 102 % of control

## O=C(Nc1ccc(C(=O)Nc2ccc(C3=NCCCN3)cc2)cc1)Nc1ccc(C2=NCCCN2)cc1
dose: 6.25 mg/kg/injection, schedule: Q04DX003 (ip), vehicle: saline with Tween-80
  T/C: 108 % of control
[4]
  T/C: 204 % of control
[5]
  T/C: 122 % of control
dose: 25.0 mg/kg/injection, schedule: Q04DX003 (ip), vehicle: saline with Tween-80
  T/C: 150 % of control
[13]
  T/C: 90 % of control

## COc1ccc(N=C(N=C(NC(=O)c2ccccc2)c2ccccc2)c2ccccc2)cc1
[6]
  T/C: 104 % of control and 95 % of control
[11]
  T/C: 103 % of control and 92 % of control
[12]
  T/C: 100 % of control

## CCC(O)(C(=O)O)c1ccccc1 (stereo unspecified)
dose: 25.0 mg/kg/injection, schedule: Q04DX003 (ip), vehicle: saline
  T/C: 105 % of control
dose: 50.0 mg/kg/injection, schedule: Q04DX003 (ip), vehicle: saline
  T/C: 97 % of control
[13]
  T/C: 94 % of control
dose: 200.0 mg/kg/injection, schedule: Q04DX003 (ip), vehicle: saline
  T/C: 100 % of control

## O=C(O)CCCC(=O)c1ccc2ccccc2c1
[6]
  T/C: 98 % of control
[11]
  T/C: 98 % of control
[12]
  T/C: 99 % of control

## ClC1=CN(C2=NCCC2)CC1
[10]
  T/C: 101 % of control
[4]
  T/C: 103 % of control
[5]
  T/C: 97 % of control
